Results on 18 compounds are retold here after ChEMBL document CHEMBL1201862, “PubChem BioAssay data set” (2004).

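Cultured in 96-well plates, cells were exposed to test compound for 48 hours across five concentrations. At the GI50, growth is halved.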 The source made the active and inactive calls. Rule as the data show it: active = GI50 up to about 1.1 µM and inactive = higher. Where only a bound is given, the exact number is not on record here.

Common to all, as to assay: NCI anticancer screen, dose series, 48 h
For test [1], the system named is DMS-273.
Test [2] deals with HOP-18.
The subject of test [3] is KM-20L2.
Test [4] has as its system LXFL 529.
For test [5], the system named is M19-MEL.
Test [6] deals with RXF 631.
Test [7] concerns XF498.
Test [8] concerns DLD-1.
For test [9], the system named is SNB-78.

On to `COc1cc2ccnc(-c3n[nH]c4cc(OC)c(OC)cc34)c2cc1OC`, for which the GI50 in test [1] is > 100 µM (inactive); in [2], > 100 µM (inactive); in [3] it was > 100 µM (inactive); in [4], > 100 µM (inactive); in test [5], > 100 µM (inactive); in test [6] it was 33 µM (inactive). For the same compound, the GI50 in [7] is > 100 µM (inactive).
For the compound `CC(=O)/C(=N\O)C(=O)NCCc1ccccc1`, the GI50 in test [8] was 60.4 µM (inactive); in test [1], 55.1 µM (inactive); in test [2], > 100 µM (inactive); in test [3], 78.9 µM (inactive); in [4], > 100 µM (inactive); in [5] it was > 100 µM (inactive). The results for the GI50 in test [9] and in test [7] were > 100 µM (inactive) and 31.6 µM (inactive), respectively.
Turning to `Cc1ccc(SSCCCS(=O)O)cc1`, the GI50 in test [8] is 45.8 µM (inactive); in test [1], 24.5 µM (inactive); in test [2] it was > 100 µM (inactive); in test [3] it was 31.7 µM (inactive); in test [4], 27.7 µM (inactive); in test [5], 31.8 µM (inactive). The GI50 in [6] is 20.4 µM (inactive); in test [7], > 100 µM (inactive).
`NC12CC3CC(C1)CC(C(=O)O)(C3)C2`: the GI50 in test [8], in test [1], in [2], in [3], in [4] and in test [5] was > 100 µM (inactive) throughout. The GI50 in [9] and in test [7] was > 100 µM (inactive) throughout.
Consider `COc1cc([C@@H]2c3cc4c(cc3[C@@H](OC(=O)c3ccc(N)cc3)C3COC(=O)[C@@H]32)OCO4)cc(OC)c1O` (some centres not stated), for which the GI50 was 5.6 µM (inactive) in test [8]; 3.43 µM (inactive) in test [1]; > 95.1 µM (inactive) in test [2]; 1.88 µM (inactive) in [3]; 14.8 µM (inactive) in [4]; 4.99 µM (inactive) in test [5]. Besides, the GI50 in test [6] is 9.1 µM (inactive); in test [9], 15.2 µM (inactive).
For the compound `O=c1[nH]c2c3ccccc3ccc2c2cc3c(cc12)OCO3`, the GI50 in [8] was > 100 µM (inactive); in test [1], 67.1 µM (inactive); in test [2], 2 µM (inactive); in test [3], > 100 µM (inactive); in test [4] it was 79.4 µM (inactive); in [5], > 100 µM (inactive). The GI50 in test [6] was > 100 µM (inactive); in [9] it was > 100 µM (inactive); in [7], 84.1 µM (inactive).
As to `Cc1nc(-n2nc(-c3ccccc3)cc2-c2ccccc2)sc1C(=O)/C=C/c1ccc(/C=C/C(=O)c2sc(-n3nc(-c4ccccc4)cc3-c3ccccc3)nc2C)cc1`, the GI50 in test [8] was 20.8 µM (inactive); in [1], 21.1 µM (inactive); in test [3], 19.1 µM (inactive); in test [4], 27.7 µM (inactive); in test [5] it was 25.9 µM (inactive); in test [6] it was 28.1 µM (inactive). In addition, the GI50 in [9] was 33.4 µM (inactive); in [7], 21.8 µM (inactive).
Regarding `CCOC(=O)CCCO`, the GI50 in test [8], in test [2], in [3], in test [4], in [6] and in [7] was > 100 µM (inactive) throughout.
For `O=C(NO)C(=O)Nc1cc(Cl)ccc1Cl`, the GI50 in test [8] was > 100 µM (inactive); in test [1], 42.7 µM (inactive); in test [2], > 100 µM (inactive); in [3], > 100 µM (inactive); in test [4], > 100 µM (inactive); in test [5] it was > 100 µM (inactive). For the same compound, the figures for the GI50 in test [6] and in test [9] were 62.7 µM (inactive) and > 100 µM (inactive), respectively.
In the case of `CCOP(=O)(C/C(=N/NC(C)(C)C)C(=O)Nc1nc2ccc(C)cc2s1)OCC`, the GI50 in test [1], in [2], in [3], in test [4], in test [5] and in test [6] was > 100 µM (inactive) in each case. The GI50 in test [9] and in [7] was > 100 µM (inactive) each time.
Consider `O=C(Nc1cccc2c1C(=O)c1c(NC(=O)c3ccccc3)ccc(Nc3cccc4c3C(=O)c3ccccc3C4=O)c1C2=O)c1ccccc1`, for which the GI50 in test [8], in test [1], in test [2], in test [3], in test [4] and in test [5] was > 100 µM (inactive) in each case. Besides, the GI50 in test [6] and in test [9] was > 100 µM (inactive) in each case.
Take `Cn1cnc([N+](=O)[O-])c1Sc1nnc(-c2ccc(Cl)cc2)n1C`: the GI50 is 11 µM (inactive) in [8]; 16.4 µM (inactive) in test [1]; 5.25 µM (inactive) in test [2]; 10.4 µM (inactive) in test [4]; 14.1 µM (inactive) in test [5]; 15.6 µM (inactive) in test [6]. Besides, the GI50 in [9] is 13.2 µM (inactive).
For the compound `C[C@@H]1O[C@@H](O[C@H]2CC[C@]3(C=O)[C@H]4CC[C@]5(C)[C@@H](c6ccc(=O)oc6)CC[C@]5(O)[C@@H]4CC[C@]3(O)C2)[C@H](O)[C@H](O)[C@H]1O[C@@H]1O[C@H](CO)[C@@H](O)[C@H](O)[C@H]1O` [HELLEBRIN], the GI50 is 0.00775 µM (active) in test [1]; 0.00518 µM (active) in [2]; 0.0187 µM (active) in test [3]; 0.0375 µM (active) in test [5]; 0.0375 µM (active) in test [9]; 0.0375 µM (active) in [7].
Consider `Cc1ccc(NC(=O)CCC(=O)C2Cc3ccccc3C2=O)cc1C` (configuration not stated), for which the GI50 in [8], in test [1], in test [2], in [3], in test [4] and in test [5] was > 100 µM (inactive) throughout. Moreover, the GI50 in test [9] and in test [7] was > 100 µM (inactive) throughout.
For the compound `N#CCCN(c1ccc(-c2nnc(NC(=O)CNNC(=O)CC(=O)Nc3ccccc3)s2)cc1)S(=O)(=O)c1ccccc1`, the GI50 was > 100 µM (inactive) in test [8]; > 100 µM (inactive) in test [1]; > 100 µM (inactive) in test [2]; 89.9 µM (inactive) in test [4]; > 100 µM (inactive) in test [5]; > 100 µM (inactive) in test [6]. For the same compound, the GI50 in test [7] was > 100 µM (inactive).
For the compound `Cc1cc(C(C)C)cc(=O)c(O)c1`, the GI50 in [8], in [1], in test [2], in test [3], in [4] and in test [5] was > 100 µM (inactive) throughout. The GI50 in test [6] and in test [9] was > 100 µM (inactive) in each case.
For the compound `CCN1C(=O)C(N=[N+]=[N-])(c2ccccc2)C(=O)c2ccccc21` (configuration not stated), the GI50 was > 100 µM (inactive) in [8]; > 100 µM (inactive) in test [1]; > 100 µM (inactive) in test [2]; > 100 µM (inactive) in [3]; 38.9 µM (inactive) in test [4]; 43.1 µM (inactive) in test [5]. The GI50 in [9] is 98.2 µM (inactive); in test [7], 0.946 µM (active).
Take `COc1ccc(CN2C(=O)C(Cc3cc(OC)c(OC)c(C)c3OC)N(C(=O)OC(C)C)C(=O)/C2=C/c2cc(OC)c(OC)c(C)c2OC)cc1` (configuration not stated): the GI50 is > 100 µM (inactive) in test [8]; 23.6 µM (inactive) in test [1]; 16.3 µM (inactive) in test [2]; > 100 µM (inactive) in test [3]; 12.7 µM (inactive) in [4]; > 100 µM (inactive) in test [5]. For the same compound, in [6], the GI50 was > 100 µM (inactive).
